{
  "source": "patent US9340590B2",
  "about": "(priority 2011, dated 2016)",
  "experiment_in_all_cases": "cell-based",
  "key": {"[1]": {"molecular_target": "hNav1.7 (Homo sapiens, UniProt Q15858)", "sequence (Q15858 whole entry, looked up)": "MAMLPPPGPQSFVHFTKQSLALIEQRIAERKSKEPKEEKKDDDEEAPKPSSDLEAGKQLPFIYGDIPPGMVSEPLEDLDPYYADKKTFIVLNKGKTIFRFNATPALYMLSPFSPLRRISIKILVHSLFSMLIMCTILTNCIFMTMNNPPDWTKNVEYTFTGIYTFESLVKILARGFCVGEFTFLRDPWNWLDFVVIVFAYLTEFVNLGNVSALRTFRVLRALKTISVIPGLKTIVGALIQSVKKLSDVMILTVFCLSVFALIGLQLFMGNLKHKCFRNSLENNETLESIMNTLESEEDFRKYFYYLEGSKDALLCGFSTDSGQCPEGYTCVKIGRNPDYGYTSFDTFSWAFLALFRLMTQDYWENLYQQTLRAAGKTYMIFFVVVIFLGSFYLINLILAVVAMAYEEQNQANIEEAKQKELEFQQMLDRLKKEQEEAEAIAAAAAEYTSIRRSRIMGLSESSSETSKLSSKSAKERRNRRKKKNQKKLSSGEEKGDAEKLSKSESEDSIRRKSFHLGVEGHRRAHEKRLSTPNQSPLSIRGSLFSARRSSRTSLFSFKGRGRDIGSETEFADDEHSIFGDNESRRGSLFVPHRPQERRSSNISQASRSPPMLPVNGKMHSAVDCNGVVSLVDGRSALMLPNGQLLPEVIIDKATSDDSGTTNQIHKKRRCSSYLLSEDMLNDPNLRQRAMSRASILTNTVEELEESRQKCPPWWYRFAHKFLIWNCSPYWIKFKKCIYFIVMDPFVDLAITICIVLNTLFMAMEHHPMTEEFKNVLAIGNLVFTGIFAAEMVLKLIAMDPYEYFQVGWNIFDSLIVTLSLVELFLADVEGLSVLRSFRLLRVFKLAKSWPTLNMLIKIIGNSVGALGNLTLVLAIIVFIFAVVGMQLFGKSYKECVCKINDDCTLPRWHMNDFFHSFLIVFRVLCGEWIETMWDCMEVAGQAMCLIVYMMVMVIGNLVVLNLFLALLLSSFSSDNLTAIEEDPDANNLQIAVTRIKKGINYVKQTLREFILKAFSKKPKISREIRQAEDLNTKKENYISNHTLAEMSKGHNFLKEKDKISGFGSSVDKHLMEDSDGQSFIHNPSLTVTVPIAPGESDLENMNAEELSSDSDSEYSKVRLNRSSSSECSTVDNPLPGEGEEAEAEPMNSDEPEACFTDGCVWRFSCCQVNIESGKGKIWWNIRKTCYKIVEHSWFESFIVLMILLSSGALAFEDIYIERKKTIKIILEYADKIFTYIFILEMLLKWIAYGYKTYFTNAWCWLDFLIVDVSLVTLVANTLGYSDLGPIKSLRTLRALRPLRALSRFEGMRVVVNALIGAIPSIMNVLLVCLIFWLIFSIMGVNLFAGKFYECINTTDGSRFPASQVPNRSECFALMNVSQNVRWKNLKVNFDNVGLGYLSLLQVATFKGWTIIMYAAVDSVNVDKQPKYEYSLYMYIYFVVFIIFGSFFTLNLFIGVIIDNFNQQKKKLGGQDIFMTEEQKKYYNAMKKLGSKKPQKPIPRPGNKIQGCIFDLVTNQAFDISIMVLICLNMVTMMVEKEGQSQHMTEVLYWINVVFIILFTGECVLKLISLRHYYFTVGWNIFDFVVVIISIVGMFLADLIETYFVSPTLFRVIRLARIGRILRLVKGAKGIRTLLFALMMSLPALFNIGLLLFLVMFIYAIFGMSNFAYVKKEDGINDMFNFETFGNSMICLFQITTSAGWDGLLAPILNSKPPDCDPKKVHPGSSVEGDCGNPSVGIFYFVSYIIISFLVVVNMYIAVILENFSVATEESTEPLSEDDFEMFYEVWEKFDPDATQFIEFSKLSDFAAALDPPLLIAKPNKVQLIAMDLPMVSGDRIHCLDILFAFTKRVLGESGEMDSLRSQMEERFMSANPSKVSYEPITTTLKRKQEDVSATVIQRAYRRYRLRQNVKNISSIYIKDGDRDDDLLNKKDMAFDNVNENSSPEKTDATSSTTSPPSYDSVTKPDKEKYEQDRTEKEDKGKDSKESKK", "type": "cell-based", "conditions": "IonWorks Quattro"}, "[2]": {"molecular_target": "hNav1.5 (Homo sapiens, UniProt Q14524)", "sequence (Q14524 whole entry, looked up)": "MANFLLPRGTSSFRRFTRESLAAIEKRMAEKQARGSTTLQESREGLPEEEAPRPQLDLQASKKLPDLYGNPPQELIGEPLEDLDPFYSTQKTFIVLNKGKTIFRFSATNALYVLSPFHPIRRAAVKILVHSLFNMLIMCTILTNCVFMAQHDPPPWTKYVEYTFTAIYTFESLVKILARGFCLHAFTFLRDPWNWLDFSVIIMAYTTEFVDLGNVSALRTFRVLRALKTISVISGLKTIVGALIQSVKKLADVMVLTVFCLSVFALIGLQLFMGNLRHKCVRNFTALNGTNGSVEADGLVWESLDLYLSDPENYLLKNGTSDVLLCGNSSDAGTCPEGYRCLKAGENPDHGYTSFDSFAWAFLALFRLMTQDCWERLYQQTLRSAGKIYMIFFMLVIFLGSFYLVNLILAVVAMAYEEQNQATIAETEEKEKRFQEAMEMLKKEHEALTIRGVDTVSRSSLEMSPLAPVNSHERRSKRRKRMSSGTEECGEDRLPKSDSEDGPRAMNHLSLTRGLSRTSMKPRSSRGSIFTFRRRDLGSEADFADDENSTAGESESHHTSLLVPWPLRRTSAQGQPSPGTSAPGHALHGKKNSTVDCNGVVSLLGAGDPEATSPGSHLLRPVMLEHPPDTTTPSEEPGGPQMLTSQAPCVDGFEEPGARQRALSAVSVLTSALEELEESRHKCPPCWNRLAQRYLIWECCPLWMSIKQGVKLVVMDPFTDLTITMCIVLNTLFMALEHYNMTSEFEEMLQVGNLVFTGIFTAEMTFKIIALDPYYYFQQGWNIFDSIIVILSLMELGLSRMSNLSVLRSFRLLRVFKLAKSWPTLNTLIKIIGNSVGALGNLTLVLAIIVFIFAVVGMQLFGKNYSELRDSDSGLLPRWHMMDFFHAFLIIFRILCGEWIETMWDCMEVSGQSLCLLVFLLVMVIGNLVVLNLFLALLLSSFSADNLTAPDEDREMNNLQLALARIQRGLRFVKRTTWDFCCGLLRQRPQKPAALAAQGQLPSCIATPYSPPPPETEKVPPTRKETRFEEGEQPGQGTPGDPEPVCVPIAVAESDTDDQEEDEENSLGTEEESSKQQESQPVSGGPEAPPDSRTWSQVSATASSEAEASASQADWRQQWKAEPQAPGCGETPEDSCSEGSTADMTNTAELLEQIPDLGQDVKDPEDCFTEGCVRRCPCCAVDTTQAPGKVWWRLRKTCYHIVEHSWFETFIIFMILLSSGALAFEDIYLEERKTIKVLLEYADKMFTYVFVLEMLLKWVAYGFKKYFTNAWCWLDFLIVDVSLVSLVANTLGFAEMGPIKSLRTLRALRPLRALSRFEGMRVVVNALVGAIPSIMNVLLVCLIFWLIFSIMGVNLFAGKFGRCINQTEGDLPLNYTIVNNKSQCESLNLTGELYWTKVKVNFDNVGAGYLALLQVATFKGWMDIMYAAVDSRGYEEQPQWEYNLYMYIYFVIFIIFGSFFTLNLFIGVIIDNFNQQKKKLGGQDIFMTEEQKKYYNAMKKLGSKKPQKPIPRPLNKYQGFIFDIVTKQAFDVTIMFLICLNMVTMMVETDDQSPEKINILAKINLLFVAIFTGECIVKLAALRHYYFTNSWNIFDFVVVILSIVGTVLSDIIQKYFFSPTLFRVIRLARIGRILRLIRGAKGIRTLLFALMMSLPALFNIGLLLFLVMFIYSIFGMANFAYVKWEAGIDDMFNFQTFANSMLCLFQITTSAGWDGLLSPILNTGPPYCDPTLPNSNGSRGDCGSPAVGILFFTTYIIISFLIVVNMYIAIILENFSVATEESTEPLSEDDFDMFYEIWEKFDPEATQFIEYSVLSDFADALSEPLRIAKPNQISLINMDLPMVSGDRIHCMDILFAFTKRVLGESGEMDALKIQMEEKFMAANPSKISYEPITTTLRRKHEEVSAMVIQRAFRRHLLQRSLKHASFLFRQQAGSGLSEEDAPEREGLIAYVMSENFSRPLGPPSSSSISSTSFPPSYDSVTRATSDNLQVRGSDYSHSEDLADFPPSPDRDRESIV", "conditions": "IonWorks Quattro, read-out: IWQ Use Nav1.5"}, "[3]": {"molecular_target": "hNav1.3 (Homo sapiens, UniProt Q9NY46)", "conditions": "IonWorks Quattro, read-out: IWQ Use Nav1.3"}, "[4]": {"conditions": "use-dependent block, hNav1.7, read-out: IWQ Use Nav1.7"}},
  "note": "Read-outs that look alike come from different tables or passages of the source. Positions of bridges follow the written chain, without caps; N, C: chain ends. Non-standard residues stand in square brackets, D forms with d. Residues, ends and D or L forms follow the SMILES beside them. *: point of attachment. NMeV = CN[C@H](C(=O)O)C(C)C; Pent4ynoyl = C#CCCC(=O)*; Nva = CCC[C@H](N)C(=O)O",
  "data": [
    {"smiles": "C#CC[C@@H]1NC(=O)[C@@H]2CCCN2C(=O)[C@H]([C@@H](C)CC)NC(=O)[C@@H]2CSSC[C@@H]3NC(=O)[C@H](C(C)C)NC(=O)[C@H](CC(C)C)NC(=O)[C@H](CC(N)=O)NC(=O)[C@@H]4CCCN4C(=O)[C@H](CCCNC(=N)N)NC(=O)[C@H](CSSC[C@H](NC(=O)[C@@H](N)CC(=O)O)C(=O)N[C@@H](CC(C)C)C(=O)NCC(=O)N[C@@H](C)C(=O)N[C@@H](Cc4ccccc4)C(=O)N[C@@H](CCCNC(=N)N)C(=O)N[C@@H](CCCCN)C(=O)N2)NC(=O)[C@H](CSSC[C@@H](C(=O)N[C@@H](CCCCN)C(=O)N[C@@H](Cc2ccc(O)cc2)C(=O)N[C@H](C(=O)N[C@@H](Cc2ccccc2)C(N)=O)C(C)C)NC(=O)[C@H](Cc2c[nH]c4ccccc24)NC(=O)[C@H](CCCNC(=N)N)NC(=O)[C@H](Cc2c[nH]cn2)NC(=O)[C@H](CC(C)C)NC(=O)[C@H](CCCNC(=N)N)NC(=O)[C@H](CO)NC3=O)NC(=O)[C@H](CCCCN)NC(=O)[C@H](CC(=O)O)NC(=O)[C@H](CC(N)=O)NC1=O", "note": "[compound 803]", "values": [
      {"measurement": "IC50", "setting": "[1]; [4]", "value": 130, "unit": "nM"},
      {"measurement": "IC50", "setting": "[2]; use-dependent block, hNav1.5", "value": 36500, "unit": "nM"},
      {"measurement": "IC50", "setting": "[3]; use-dependent block, hNav1.3", "value": 120, "unit": "nM"}
    ]},
    {"smiles": "CC[C@H](C)[C@@H]1NC(=O)[C@@H]2CSSC[C@@H]3NC(=O)[C@H](C(C)C)NC(=O)[C@H](CCSC)NC(=O)[C@H](CC(N)=O)NC(=O)[C@@H]4CCCN4C(=O)[C@H](CCCNC(=N)N)NC(=O)[C@H](CSSC[C@H](NC(=O)[C@@H](N)CC(=O)O)C(=O)N[C@@H](CC(C)C)C(=O)NCC(=O)N[C@@H](Cc4ccccc4)C(=O)N[C@@H](CCSC)C(=O)N[C@@H](CCCNC(=N)N)C(=O)N[C@@H](CCCCN)C(=O)N2)NC(=O)[C@H](CSSC[C@@H](C(=O)N[C@@H](CCCCN)C(=O)N[C@@H](Cc2ccc(O)cc2)C(=O)N[C@H](C(=O)N[C@@H](Cc2ccccc2)C(N)=O)C(C)C)NC(=O)[C@H](Cc2c[nH]c4ccccc24)NC(=O)[C@H](CCCCN)NC(=O)[C@H](Cc2c[nH]cn2)NC(=O)[C@H]([C@@H](C)O)NC(=O)[C@H](CCCNC(=N)N)NC(=O)[C@H](CO)NC3=O)NC(=O)[C@H](CCCCN)NC(=O)[C@H](CC(=O)O)NC(=O)[C@H](CC(N)=O)NC(=O)[C@H](CC(=O)O)NC(=O)[C@@H]2CCCN2C1=O", "note": "[compound 120] (H-DCLGFMRKCIPDNDKCCRPNMVCSRTHKWCKYVF-NH2; disulfide 2-17, 9-23, 16-30)", "values": [
      {"measurement": "IC50", "setting": "[1]; Use, read-out: IWQ Use Nav1.7", "value": 140, "unit": "nM"},
      {"measurement": "IC50", "setting": "[2]; Use", "value": 9540, "unit": "nM"},
      {"measurement": "IC50", "setting": "[3]; Use", "value": 90, "unit": "nM"}
    ]},
    {"smiles": "C#CCCC(=O)NCCCC[C@@H]1NC(=O)[C@H](CC(=O)O)NC(=O)[C@@H]2CCCN2C(=O)[C@H]([C@@H](C)CC)NC(=O)[C@@H]2CSSC[C@@H]3NC(=O)[C@H](C(C)C)NC(=O)[C@H](CC(C)C)NC(=O)[C@H](CC(N)=O)NC(=O)[C@@H]4CCCN4C(=O)[C@H](CCCNC(=N)N)NC(=O)[C@H](CSSC[C@H](NC(=O)[C@@H](N)CC(=O)O)C(=O)N[C@@H](CC(C)C)C(=O)NCC(=O)N[C@@H](CCC)C(=O)N[C@@H](CC(C)C)C(=O)N[C@@H](CCCNC(=N)N)C(=O)N[C@@H](CCCCN)C(=O)N2)NC(=O)[C@H](CSSC[C@@H](C(=O)N[C@@H](CCCCN)C(=O)N[C@@H](Cc2ccc(O)cc2)C(=O)N[C@H](C(=O)N[C@@H](Cc2ccccc2)C(N)=O)C(C)C)NC(=O)[C@H](Cc2c[nH]c4ccccc24)NC(=O)[C@H](CCCNC(=N)N)NC(=O)[C@H](Cc2c[nH]cn2)NC(=O)[C@H]([C@@H](C)O)NC(=O)[C@H](CCCNC(=N)N)NC(=O)[C@H](CO)NC3=O)NC(=O)[C@H](CCCCN)NC(=O)[C@H](CC(=O)O)NC1=O", "note": "[compound 805] (H-DCLG[Nva]LRKCIPDK(Pent4ynoyl)DKCCRPNLVCSRTHRWCKYVF-NH2; disulfide 2-17, 9-23, 16-30)", "values": [
      {"measurement": "IC50", "setting": "[1]; [4]", "value": 310, "unit": "nM"},
      {"measurement": "IC50", "setting": "[2]; use-dependent block, hNav1.5", "value": 37500, "unit": "nM"},
      {"measurement": "IC50", "setting": "[3]; use-dependent block, hNav1.3", "value": 270, "unit": "nM"}
    ]},
    {"smiles": "CC[C@H](C)[C@@H]1NC(=O)[C@@H]2CSSC[C@@H]3NC(=O)[C@H](C(C)C)NC(=O)[C@H](CC(C)C)NC(=O)[C@H](CC(N)=O)NC(=O)[C@@H]4CCCN4C(=O)[C@H](CCCNC(=N)N)NC(=O)[C@H](CSSC[C@H](NC(=O)[C@@H](N)CC(=O)O)C(=O)N[C@@H](CC(C)C)C(=O)NCC(=O)N[C@@H](Cc4ccccc4)C(=O)N[C@@H](CCSC)C(=O)N[C@@H](CCCNC(=N)N)C(=O)N[C@@H](CCCCN)C(=O)N2)NC(=O)[C@H](CSSC[C@@H](C(=O)N[C@@H](CCCCN)C(=O)N[C@@H](Cc2ccc(O)cc2)C(=O)N[C@H](C(=O)N[C@@H](Cc2ccccc2)C(=O)N[C@@H](CCCCN)C(N)=O)C(C)C)NC(=O)[C@H](Cc2c[nH]c4ccccc24)NC(=O)[C@H](CCCCN)NC(=O)[C@H](Cc2c[nH]cn2)NC(=O)[C@H]([C@@H](C)O)NC(=O)[C@H](CCCNC(=N)N)NC(=O)[C@H](CO)NC3=O)NC(=O)[C@H](CCCCN)NC(=O)[C@H](CC(=O)O)NC(=O)[C@H](CC(N)=O)NC(=O)[C@H](CC(=O)O)NC(=O)[C@@H]2CCCN2C1=O", "note": "[compound 60]", "values": [
      {"measurement": "IC50", "setting": "[1]; use-dependent, […], read-out: IWQ Use Nav1.7 (μm)", "value": 590, "unit": "nM"},
      {"measurement": "IC50", "setting": "[2]; use-dependent, […]", "value": 12500, "unit": "nM"},
      {"measurement": "IC50", "setting": "[3]; use-dependent, […]", "value": 210, "unit": "nM"}
    ]},
    {"smiles": "CC[C@H](C)[C@@H]1NC(=O)[C@@H]2CSSC[C@@H]3NC(=O)[C@H](C(C)C)NC(=O)[C@H](CC(C)C)NC(=O)[C@H](CC(N)=O)NC(=O)[C@@H]4CCCN4C(=O)[C@H](CCCNC(=N)N)NC(=O)[C@H](CSSC[C@H](NC(=O)[C@@H](N)CC(=O)O)C(=O)N[C@@H](CC(C)C)C(=O)NCC(=O)N[C@@H](Cc4ccccc4)C(=O)N[C@@H](CCSC)C(=O)N[C@@H](CCCNC(=N)N)C(=O)N[C@@H](CCCCN)C(=O)N2)NC(=O)[C@H](CSSC[C@@H](C(=O)N[C@@H](CCCCN)C(=O)N[C@@H](Cc2ccc(O)cc2)C(=O)N[C@H](C(=O)N[C@@H](Cc2ccccc2)C(N)=O)C(C)C)NC(=O)[C@H](Cc2c[nH]c4ccccc24)NC(=O)[C@H](CCCCN)NC(=O)[C@H]([C@@H](C)O)NC(=O)[C@H](CCCCN)NC(=O)[C@H](CCCNC(=N)N)NC(=O)[C@H](CO)NC3=O)NC(=O)[C@H](CCCCN)NC(=O)[C@H](CC(=O)O)NC(=O)[C@H](CC(N)=O)NC(=O)[C@H](CC(=O)O)NC(=O)[C@@H]2CCCN2C1=O", "note": "[compound 94] (H-DCLGFMRKCIPDNDKCCRPNLVCSRKTKWCKYVF-NH2; disulfide 2-17, 9-23, 16-30)", "values": [
      {"measurement": "IC50", "setting": "[1]; Table 22, use, […], read-out: IWQ Use Nav1.7", "value": 100, "unit": "nM"},
      {"measurement": "IC50", "setting": "[2]; Table 22, use, […]", "value": 9290, "unit": "nM"},
      {"measurement": "IC50", "setting": "[3]; Table 22, use, […]", "value": 50, "unit": "nM"}
    ]},
    {"smiles": "CC[C@H](C)[C@@H]1NC(=O)[C@@H]2CSSC[C@@H]3NC(=O)[C@H](C(C)C)NC(=O)[C@H](CC(C)C)NC(=O)[C@H](CC(N)=O)NC(=O)[C@@H]4CCCN4C(=O)[C@H](CCCNC(=N)N)NC(=O)[C@H](CSSC[C@H](NC(=O)[C@@H](N)CC(=O)O)C(=O)N[C@@H](CC(C)C)C(=O)NCC(=O)N(C)[C@@H](C(C)C)C(=O)N[C@@H](Cc4ccccc4)C(=O)N[C@@H](CCCNC(=N)N)C(=O)N[C@@H](CCCCN)C(=O)N2)NC(=O)[C@H](CSSC[C@@H](C(=O)N[C@@H](CCCCN)C(=O)N[C@@H](Cc2ccc(O)cc2)C(=O)N[C@H](C(=O)N[C@@H](Cc2ccccc2)C(N)=O)C(C)C)NC(=O)[C@H](Cc2c[nH]c4ccccc24)NC(=O)[C@H](CCCCN)NC(=O)[C@H](Cc2c[nH]cn2)NC(=O)[C@H]([C@@H](C)O)NC(=O)[C@H](CCCNC(=N)N)NC(=O)[C@H](CO)NC3=O)NC(=O)[C@H](CCCCN)NC(=O)[C@H](CC(=O)O)NC(=O)[C@H](CC(N)=O)NC(=O)[C@H](CC(=O)O)NC(=O)[C@@H]2CCCN2C1=O", "note": "[compound 627] (H-DCLG[NMeV]FRKCIPDNDKCCRPNLVCSRTHKWCKYVF-NH2; disulfide 2-17, 9-23, 16-30)", "values": [
      {"measurement": "IC50", "setting": "[1]; use-dependent protocol, hNav1.7, read-out: IWQ Use Nav1.7", "value": 190, "unit": "nM"},
      {"measurement": "IC50", "setting": "[2]; use-dependent protocol, hNav1.5", "value": 6000, "unit": "nM"},
      {"measurement": "IC50", "setting": "[3]; use-dependent protocol, hNav1.3", "value": 250, "unit": "nM"}
    ]}
  ]
}
